Source: ChEMBL document CHEMBL4261525, “Design, facile synthesis and anthelmintic activity of new O-substituted 6-methoxybenzothiazole-2-carbamates. Part II” (2017)

What was measured:
Assay type in all cases: functional
[1] = system: Paramphistomum; experiment: Anthelmintic activity against Paramphistomum assessed as mortality at 40 ug/ml after 1 hr relative to control
[2] = system: Paramphistomum; experiment: Anthelmintic activity against Paramphistomum assessed as mortality at 80 ug/ml after 2 hrs relative to control
[3] = system: Paramphistomum; experiment: Anthelmintic activity against Paramphistomum assessed as mortality at 80 ug/ml after 1 hr relative to control
[4] = system: Paramphistomum; experiment: Anthelmintic activity against Paramphistomum assessed as mortality at 80 ug/ml after 6 hrs relative to control
[5] = system: Paramphistomum; experiment: Anthelmintic activity against Paramphistomum assessed as mortality at 40 ug/ml after 2 hrs relative to control
[6] = system: Paramphistomum; experiment: Anthelmintic activity against Paramphistomum assessed as mortality at 40 ug/ml after 6 hrs relative to control
[7] = system: Paramphistomum; experiment: Anthelmintic activity against Paramphistomum assessed as mortality at 80 ug/ml after 4 hrs relative to control
[8] = system: Paramphistomum; experiment: Anthelmintic activity against Paramphistomum assessed as mortality at 40 ug/ml after 4 hrs relative to control

SMILES | mortality at 40 µg/mL [1] [%] | mortality at 80 µg/mL [2] [%] | mortality at 80 µg/mL [3] [%] | mortality at 80 µg/mL [4] [%] | mortality at 40 µg/mL [5] [%] | mortality at 40 µg/mL [6] [%] | mortality at 80 µg/mL [7] [%] | mortality at 40 µg/mL [8] [%]
COC(=O)Nc1nc2ccc(OCc3nnc(SCc4ccccc4)o3)cc2s1 | 30 | 60 | 30 | 100 | 30 | 60 | 90 | 50
COC(=O)Nc1nc2ccc(OCc3nnc(SCC(=O)c4ccccc4)o3)cc2s1 | 10 | 40 | 30 | 70 | 20 | 30 | 50 | 20
COC(=O)Nc1nc2ccc(OCc3nnc(S)n3-c3ccccc3)cc2s1 | 0 | 0 | 0 | 0 | 0 | 0 | 0 | 0
CCSc1nnc(COc2ccc3nc(NC(=O)OC)sc3c2)o1 | 10 | 60 | 20 | 80 | 40 | 80 | 60 | 50
COC(=O)Nc1nc2ccc(OCc3nnc(SCC(=O)c4ccc(Cl)cc4)o3)cc2s1 | 40 | 70 | 50 | – | 40 | 40 | 100 | 40
COC(=O)Nc1nc2ccc(OCc3nnc(S)n3-c3ccc(Cl)cc3)cc2s1 | 10 | 20 | 20 | 80 | 20 | 50 | 50 | 30
COC(=O)Nc1nc2ccc(OCc3nnc(SCC(=O)c4ccc(Br)cc4)o3)cc2s1 | 20 | 100 | 60 | – | 40 | 60 | – | 60
COC(=O)Nc1nc2ccc(OCc3nnc(SC)o3)cc2s1 | 10 | 20 | 10 | 40 | 10 | 20 | 30 | 20
COC(=O)Nc1nc2ccc(OCc3nnc(S)n3-c3ccc(C)cc3)cc2s1 | 0 | 0 | 0 | 0 | 0 | 0 | 0 | 0
O=C(Nc1cc(Cl)cc(Cl)c1O)c1c(O)c(Cl)cc(Cl)c1Cl [OXYCLOZANIDE] | 30 | 100 | 50 | – | 70 | – | – | 100
C=CCSc1nnc(COc2ccc3nc(NC(=O)OC)sc3c2)o1 | 20 | 40 | 20 | – | 30 | 70 | 100 | 50
COC(=O)Nc1nc2ccc(OCc3nnc(SC(=O)CCl)o3)cc2s1 | 10 | 30 | 10 | 50 | 10 | 20 | 30 | 20
CCOC(=O)CSc1nnc(COc2ccc3nc(NC(=O)OC)sc3c2)o1 | 10 | 30 | 20 | 60 | 20 | 30 | 50 | 30
